Reference: patent US20240270821A1, “GIP/GLP1/GCG TRI-RECEPTOR AGONISTS AND USES THEREOF” (priority 2023, published 2024)
Starred links: 1 amine or outer side, 2 acyl side, 3 side chain; linkers in the order of their positions; H or OH if unused. Non-standard residues stand in square brackets, D forms with d. Residues, ends and D or L forms follow the SMILES beside them. Groups on a side chain read outwards from the residue. *: point of attachment. C18 diacid = O=C(O)CCCCCCCCCCCCCCCCC(=O)*; αMePhe(2-F) = C[C@](N)(Cc1ccccc1F)C(=O)O; γGlu = O=C(O)[C@H](CCC(=O)[*:2])N[*:1]; αMe4Pal = C[C@](N)(Cc1ccncc1)C(=O)O; αMeY = C[C@](N)(Cc1ccc(O)cc1)C(=O)O; 4Pal = N[C@@H](Cc1ccncc1)C(=O)O; αMeL = CC(C)C[C@](C)(N)C(=O)O; αMeS = C[C@](N)(CO)C(=O)O; Orn = NCCC[C@H](N)C(=O)O; AEEA = NCCOCCOCC(=O)O; Aib = CC(C)(N)C(=O)O

What was measured:
Assay type in all cases: cell-based
hGIPR [1] = biological target: T1, hGIPR (Homo sapiens, UniProt P48546); test: Functional cAMP activity in the presence of 1% HSA; conditions: read-out: cAMP Rel EC50, hGIPR
T1 sequence (P48546 22-466): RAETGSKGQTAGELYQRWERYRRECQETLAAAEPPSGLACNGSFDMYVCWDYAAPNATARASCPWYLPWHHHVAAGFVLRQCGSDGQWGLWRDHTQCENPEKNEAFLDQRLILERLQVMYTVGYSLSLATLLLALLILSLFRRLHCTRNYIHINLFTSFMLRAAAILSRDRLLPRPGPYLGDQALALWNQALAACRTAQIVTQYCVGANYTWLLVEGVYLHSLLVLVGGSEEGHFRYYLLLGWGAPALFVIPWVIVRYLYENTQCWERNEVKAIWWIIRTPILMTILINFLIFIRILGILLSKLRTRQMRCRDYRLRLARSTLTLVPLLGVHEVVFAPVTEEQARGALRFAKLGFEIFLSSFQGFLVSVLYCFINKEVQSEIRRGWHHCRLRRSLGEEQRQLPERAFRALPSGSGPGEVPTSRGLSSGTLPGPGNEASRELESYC

hGLP-1R [2] = biological target: T2, hGLP-1R (Homo sapiens, UniProt P43220); test: Functional cAMP activity in the presence of 1% HSA; conditions: read-out: cAMP Rel EC50, hGLP-1R
T2 sequence (P43220 24-463): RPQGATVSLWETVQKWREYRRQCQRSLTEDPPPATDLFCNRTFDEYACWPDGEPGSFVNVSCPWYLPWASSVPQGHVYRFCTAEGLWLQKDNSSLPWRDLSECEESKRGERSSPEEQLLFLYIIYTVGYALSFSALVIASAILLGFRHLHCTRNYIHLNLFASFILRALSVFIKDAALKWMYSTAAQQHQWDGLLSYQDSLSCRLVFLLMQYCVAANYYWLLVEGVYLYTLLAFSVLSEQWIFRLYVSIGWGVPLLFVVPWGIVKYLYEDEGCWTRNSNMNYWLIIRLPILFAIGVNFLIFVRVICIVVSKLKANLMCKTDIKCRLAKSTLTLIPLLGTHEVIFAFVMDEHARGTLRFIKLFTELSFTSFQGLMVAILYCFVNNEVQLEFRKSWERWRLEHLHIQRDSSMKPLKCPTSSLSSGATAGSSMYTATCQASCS

human GcgR = human GcgR (Homo sapiens, UniProt P47871); test: Functional cAMP activity in the presence of 1% HSA; conditions: read-out: cAMP Rel EC50, hGcgR
Chain of human GcgR (P47871 26-477): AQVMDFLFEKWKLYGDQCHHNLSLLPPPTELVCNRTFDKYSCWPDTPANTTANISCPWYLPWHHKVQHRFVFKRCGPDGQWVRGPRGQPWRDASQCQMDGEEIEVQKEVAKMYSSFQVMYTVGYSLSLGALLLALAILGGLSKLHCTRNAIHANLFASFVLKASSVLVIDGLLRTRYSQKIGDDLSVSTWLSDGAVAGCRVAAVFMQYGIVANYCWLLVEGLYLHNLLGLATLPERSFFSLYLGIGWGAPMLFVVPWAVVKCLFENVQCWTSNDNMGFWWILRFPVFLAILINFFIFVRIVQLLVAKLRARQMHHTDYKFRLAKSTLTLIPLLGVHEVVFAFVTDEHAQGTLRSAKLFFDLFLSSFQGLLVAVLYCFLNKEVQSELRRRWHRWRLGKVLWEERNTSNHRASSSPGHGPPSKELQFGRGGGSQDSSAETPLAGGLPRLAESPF

hGIPR [3] = biological target: T1, hGIPR; test: Functional cAMP activation in the presence of 0.1% casein (no HSA); conditions: read-out: Relative cAMP EC50, hGIPR;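 for Relative cAMP EC50, hGIPR: intracellular cAMP rise after 30 min at 37 °C read by HTRF against a standard curve, scaled between buffer alone (0%) and top control ligand concentration (100%), four-parameter fit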;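 for Relative cAMP EC50, hGLP-1R: intracellular cAMP rise after 30 min at 37 °C read by HTRF, normalized between buffer only (0%) and maximal control ligand (100%), four-parameter variable-slope fit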;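 for Relative cAMP EC50, hGcgR: intracellular cAMP rise after 30 min at 37 °C, read by HTRF against a cAMP standard curve, scaled from buffer only (0%) to maximal control ligand response (100%)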
hGLP-1R [4] = biological target: T2, hGLP-1R; test: as above; conditions: read-out: Relative cAMP EC50, hGLP-1R
hGcgR = hGcgR (Homo sapiens, UniProt P47871); test: as above; conditions: read-out: Relative cAMP EC50, hGcgR;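 note: intracellular cAMP rise after 30 min at 37 °C, read by HTRF against a cAMP standard curve, scaled from buffer only (0%) to maximal control ligand response (100%)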
Chain of hGcgR (P47871 26-477): as above

Row | SMILES | EC50 (hGIPR [1]) [nM] | EC50 (hGLP-1R [2]) [nM] | EC50 (human GcgR) [nM] | EC50 (hGIPR [3]) [nM] | EC50 (hGLP-1R [4]) [nM] | EC50 (hGcgR) [nM]
1 | CC[C@H](C)[C@H](NC(=O)[C@H](Cc1ccccc1)NC(=O)[C@H](CC(N)=O)NC(=O)C(C)(C)NC(=O)[C@H](CCC(N)=O)NC(=O)[C@H](C)NC(=O)[C@H](CCCCNC(=O)CC[C@H](NC(=O)CC[C@H](NC(=O)CCCCCCCCCCCCCCCCC(=O)O)C(=O)O)C(=O)O)NC(=O)[C@H](CCCN)NC(=O)[C@H](CC(=O)O)NC(=O)[C@H](CC(C)C)NC(=O)[C@](C)(CC(C)C)NC(=O)[C@@H](NC(=O)[C@](C)(CO)NC(=O)[C@H](Cc1ccncc1)NC(=O)[C@H](CC(=O)O)NC(=O)[C@H](CO)NC(=O)[C@@H](NC(=O)[C@](C)(Cc1ccccc1F)NC(=O)[C@@H](NC(=O)CNC(=O)[C@H](CCC(N)=O)NC(=O)C(C)(C)NC(=O)[C@@H](N)Cc1ccc(O)cc1)[C@@H](C)O)[C@@H](C)O)[C@@H](C)CC)C(=O)N[C@H](CCC(=O)O)C(=O)N[C@@](C)(Cc1ccc(O)cc1)C(=O)N[C@@H](CC(C)C)C(=O)N[C@@H](CCC(N)=O)C(=O)N[C@@H](CCC(=O)O)C(=O)NCC(=O)NCC(=O)N1CCC[C@H]1C(=O)N[C@@H](CO)C(=O)N[C@@H](CO)C(=O)NCC(=O)N[C@@H](CCC(=O)O)C(=O)N1CCC[C@H]1C(=O)N1CCC[C@H]1C(=O)N1CCC[C@H]1C(=O)N[C@@H](CCC(=O)O)C(N)=O [Example 450] (H-Y[Aib]QGT[αMePhe(2-F)]TSD[4Pal][αMeS]I[αMeL]LD[Orn]K([γGlu-γGlu-C18 diacid])AQ[Aib]NFI[dE][αMeY]LQEGGPSSGEPPPE-NH2) | 3.75 | 18.4 | 553 | 0.0448 | 0.43 | 4.84
2 | CC[C@H](C)[C@H](NC(=O)[C@H](CC(C)C)NC(=O)[C@](C)(Cc1ccc(O)cc1)NC(=O)[C@@H](CCC(=O)O)NC(=O)[C@@H](NC(=O)[C@H](Cc1ccccc1)NC(=O)[C@H](CC(N)=O)NC(=O)C(C)(C)NC(=O)[C@H](CCC(N)=O)NC(=O)[C@H](C)NC(=O)[C@H](CCCCNC(=O)COCCOCCNC(=O)CC[C@H](NC(=O)CC[C@H](NC(=O)CCCCCCCCCCCCCCCCC(=O)O)C(=O)O)C(=O)O)NC(=O)[C@H](CCCN)NC(=O)[C@H](CC(=O)O)NC(=O)[C@H](CC(C)C)NC(=O)[C@](C)(CC(C)C)NC(=O)[C@@H](NC(=O)[C@](C)(CO)NC(=O)[C@H](Cc1ccncc1)NC(=O)[C@H](CC(=O)O)NC(=O)[C@H](CO)NC(=O)[C@@H](NC(=O)[C@](C)(Cc1ccccc1F)NC(=O)[C@@H](NC(=O)CNC(=O)[C@H](CCC(N)=O)NC(=O)C(C)(C)NC(=O)[C@@H](N)Cc1ccc(O)cc1)[C@@H](C)O)[C@@H](C)O)[C@@H](C)CC)[C@@H](C)CC)C(=O)N[C@@H](CCC(=O)O)C(=O)NCC(=O)NCC(=O)N1CCC[C@H]1C(=O)N[C@@H](CO)C(=O)N[C@@H](CO)C(=O)NCC(=O)N[C@@H](CCC(=O)O)C(=O)N1CCC[C@H]1C(=O)N1CCC[C@H]1C(=O)N1CCC[C@H]1C(=O)N[C@@H](CCC(=O)O)C(N)=O [Example 451] (H-Y[Aib]QGT[αMePhe(2-F)]TSD[4Pal][αMeS]I[αMeL]LD[Orn]K([AEEA-γGlu-γGlu-C18 diacid])AQ[Aib]NFI[dE][αMeY]LIEGGPSSGEPPPE-NH2; N-terminus assumed) | 0.96 | 10.9 | 384 | 0.0101 | 0.256 | 4.12
3 | CC[C@H](C)[C@H](NC(=O)[C@H](CC(C)C)NC(=O)[C@](C)(Cc1ccncc1)NC(=O)[C@@H](CCC(=O)O)NC(=O)[C@@H](NC(=O)[C@H](Cc1ccccc1)NC(=O)[C@H](CCCN)NC(=O)C(C)(C)NC(=O)[C@H](CCC(N)=O)NC(=O)[C@H](C)NC(=O)[C@H](CCCCNC(=O)COCCOCCNC(=O)CC[C@H](NC(=O)CCCCCCCCCCCCCCCCC(=O)O)C(=O)O)NC(=O)[C@H](CCCN)NC(=O)[C@H](CC(=O)O)NC(=O)[C@H](CC(C)C)NC(=O)[C@](C)(CC(C)C)NC(=O)[C@@H](NC(=O)[C@](C)(CO)NC(=O)[C@H](Cc1ccncc1)NC(=O)[C@H](CC(=O)O)NC(=O)[C@H](CO)NC(=O)[C@@H](NC(=O)[C@](C)(Cc1ccccc1F)NC(=O)[C@@H](NC(=O)CNC(=O)[C@H](CCC(N)=O)NC(=O)C(C)(C)NC(=O)[C@@H](N)Cc1ccc(O)cc1)[C@@H](C)O)[C@@H](C)O)[C@@H](C)CC)[C@@H](C)CC)C(=O)N[C@@H](CCC(=O)O)C(=O)NCC(=O)NCC(=O)N1CCC[C@H]1C(=O)N[C@@H](CO)C(=O)N[C@@H](CO)C(=O)NCC(=O)N[C@@H](CCC(=O)O)C(=O)N1CCC[C@H]1C(=O)N1CCC[C@H]1C(=O)N1CCC[C@H]1C(=O)N[C@@H](CCC(=O)O)C(N)=O [Example 453] (H-Y[Aib]QGT[αMePhe(2-F)]TSD[4Pal][αMeS]I[αMeL]LD[Orn]K([AEEA-γGlu-C18 diacid])AQ[Aib][Orn]FI[dE][αMe4Pal]LIEGGPSSGEPPPE-NH2) | 1.95 | 20.6 | 261 | 0.0184 | 0.374 | 7.37
4 | CC[C@H](C)[C@H](NC(=O)[C@H](CCCN)NC(=O)[C@H](CC(=O)O)NC(=O)[C@H](CC(C)C)NC(=O)[C@H](CC(C)C)NC(=O)[C@@H](NC(=O)[C@H](CO)NC(=O)[C@H](Cc1ccncc1)NC(=O)[C@H](CC(=O)O)NC(=O)[C@H](CO)NC(=O)[C@@H](NC(=O)[C@](C)(Cc1ccccc1F)NC(=O)[C@@H](NC(=O)CNC(=O)[C@H](CCC(N)=O)NC(=O)C(C)(C)NC(=O)[C@@H](N)Cc1ccc(O)cc1)[C@@H](C)O)[C@@H](C)O)[C@@H](C)CC)C(=O)N[C@@H](C)C(=O)N[C@@H](CCC(N)=O)C(=O)NC(C)(C)C(=O)N[C@@H](C)C(=O)N[C@@H](Cc1ccccc1)C(=O)N[C@H](C(=O)N[C@@H](CCCCNC(=O)COCCOCCNC(=O)CC[C@H](NC(=O)CCCCCCCCCCCCCCCCC(=O)O)C(=O)O)C(=O)N[C@@H](Cc1ccc(O)cc1)C(=O)N[C@@H](CC(C)C)C(=O)N[C@@H](CCC(=O)O)C(=O)N[C@@H](CCC(=O)O)C(=O)NCC(=O)NCC(=O)N1CCC[C@H]1C(=O)N[C@@H](CO)C(=O)N[C@@H](CO)C(=O)NCC(=O)N[C@@H](C)C(=O)N1CCC[C@H]1C(=O)N1CCC[C@H]1C(=O)N1CCC[C@H]1C(=O)N[C@@H](CO)C(N)=O)[C@@H](C)CC [Example 454] (H-Y[Aib]QGT[αMePhe(2-F)]TSD[4Pal]SILLD[Orn]IAQ[Aib]AFIK([AEEA-γGlu-C18 diacid])YLEEGGPSSGAPPPS-NH2) | 4.31 | 135 | 1280 | 0.0154 | 0.821 | 9.11
5 | CC[C@H](C)[C@H](NC(=O)[C@H](CCCCN)NC(=O)[C@H](CC(=O)O)NC(=O)[C@H](CC(C)C)NC(=O)[C@](C)(CC(C)C)NC(=O)[C@@H](NC(=O)[C@H](CO)NC(=O)[C@H](Cc1ccc(O)cc1)NC(=O)[C@H](CC(=O)O)NC(=O)[C@H](CO)NC(=O)[C@@H](NC(=O)[C@](C)(Cc1ccccc1F)NC(=O)[C@@H](NC(=O)CNC(=O)[C@H](CCC(N)=O)NC(=O)C(C)(C)NC(=O)[C@@H](N)Cc1ccc(O)cc1)[C@@H](C)O)[C@@H](C)O)[C@@H](C)CC)C(=O)N[C@@H](C)C(=O)N[C@@H](CCC(N)=O)C(=O)NC(C)(C)C(=O)N[C@@H](C)C(=O)N[C@@H](Cc1ccccc1)C(=O)N[C@H](C(=O)N[C@@H](CCCCNC(=O)COCCOCCNC(=O)CC[C@H](NC(=O)CCCCCCCCCCCCCCCCC(=O)O)C(=O)O)C(=O)N[C@@H](Cc1ccc(O)cc1)C(=O)N[C@@H](CC(C)C)C(=O)N[C@@H](CCC(=O)O)C(=O)N[C@@H](CCC(=O)O)C(=O)NCC(=O)NCC(=O)N1CCC[C@H]1C(=O)N[C@@H](CO)C(=O)N[C@@H](CO)C(=O)NCC(=O)N[C@@H](C)C(=O)N1CCC[C@H]1C(=O)N1CCC[C@H]1C(=O)N1CCC[C@H]1C(=O)N[C@@H](CO)C(N)=O)[C@@H](C)CC [Example 455] (H-Y[Aib]QGT[αMePhe(2-F)]TSDYSI[αMeL]LDKIAQ[Aib]AFIK([AEEA-γGlu-C18 diacid])YLEEGGPSSGAPPPS-NH2) | 5.2 | 105 | 1200 | 0.0182 | 0.49 | 4.36
